# Test results as given in patent publication US9199975B2, “Biaryl imidazole derivatives for regulating CYP17” (Asana Biosciences, LLC, priority 2011, dated 2015).
# Legend:
# human CYP17 = biological target: T1, human CYP17 (Homo sapiens, UniProt P05093); experiment: CYP17 inhibition assay in yeast microsomes overexpressing human CYP17; format: biochemical; conditions: yeast microsomes expressing human CYP17, 3H3-17α-hydroxypregnenolone substrate, 60 minutes at 37° C.
# T1 sequence (P05093 1-508): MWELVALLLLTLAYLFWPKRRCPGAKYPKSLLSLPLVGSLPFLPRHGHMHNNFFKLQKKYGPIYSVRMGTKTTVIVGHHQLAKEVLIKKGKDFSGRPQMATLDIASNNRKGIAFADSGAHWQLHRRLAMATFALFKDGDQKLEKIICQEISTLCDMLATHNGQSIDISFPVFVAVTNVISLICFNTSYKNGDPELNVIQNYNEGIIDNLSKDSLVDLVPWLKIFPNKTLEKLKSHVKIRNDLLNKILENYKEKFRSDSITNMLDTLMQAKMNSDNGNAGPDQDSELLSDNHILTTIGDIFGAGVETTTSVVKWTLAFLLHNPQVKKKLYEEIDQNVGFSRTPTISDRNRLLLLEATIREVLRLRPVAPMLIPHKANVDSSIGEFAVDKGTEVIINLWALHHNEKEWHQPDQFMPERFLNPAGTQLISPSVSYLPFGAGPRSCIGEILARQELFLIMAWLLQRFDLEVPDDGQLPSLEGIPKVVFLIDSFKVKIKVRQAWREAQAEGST
# Experimental: (§1) CYP17 Inhibition Assay in Rat Testicular Microsomes (Rat CYP17) or Yeast Microsome Overexpressing Human CYP17
# (§2) A. Materials • 1. NADPH (Sigma): A working stock was prepared by adding 25 μL of 6.5 mM NADPH in each tube. The final concentration of NADPH used in the assay was 325 μM. • 2. Potassium Phosphate Buffer: One molar (1M) solutions of K2HPO4 and KH2PO4 were prepared. Eight mL of the 1 M KH2PO4 and 1.98 mL of the 1 M K2HPO4 were combined and the pH was adjusted to 7.4. • 3. ^3H3-17α-hydroxypregnenolone (American Radiolabeled Chemicals, Inc., stock 1 μCi/μL): A 1:1 dilution of ^3H3-17α-hydroxypregnenolone in ethanol was prepared by combining 100 μL ^3H3-17α-hydroxypregnenolone+100 μL ethanol for one complete 96 well plate. For the reaction, 2 μL of the diluted ^3H3-17α-hydroxypregnenolone was added in each tube, i.e., 1 μCi/reaction. • 4. Microsome Isolation Buffer: The microsome isolation buffer was prepared by combining 250 mM Sucrose, 5 mM EDTA, 10 mM Tris HCl, 4 mM DTT, and adjusting to pH 7.4. • 5. TEG Buffer: The TEG buffer was prepared by combining 50 mM Tris HCl, 1 mM EDTA, and 20% Glycerol. • 6. Rat Testicular Microsomes: Rat testis tissue was collected and disrupted with 30 strokes of a glass homogenizer on ice with 250 μL of microsome isolation buffer, followed by centrifugation at 10,000 g for 10 minutes at 4° C. The supernatant was collected and centrifuged at 100,000 g for 45 minutes at 4° C. The pellet was dissolved in TEG Buffer and the protein was quantified. The homogenized microsome samples were then frozen at −80° C. • 7. Yeast Microsomes which overexpress the human CYP17 enzyme were obtained from Premas Biotech, India.
# (§3) Potassium phosphate buffer (470 μL) was prepared as described above and was added to each well of a deep well plate. The test compound was diluted using a TECAN liquid handler and 5 μL of diluted compound was transferred to each well (96 deep well/1 mL). A solution (25 μL) of 6.5 mM NADPH was added (final concentration of 325 µM in the assay). ^3H3-17α-hydroxypregnenolone (2 μL of the working stock) was added to each tube. The plates were then pre-incubated for 15 minutes at 37° C. Following the pre-incubation, either 5 μL rat testicular microsomes (150-160 μg) or 5 μL of yeast microsomes expressing human CYP17 (1.7 pmol), was added. Incubation was at 37° C. for 60 minutes in the presence of oxygen. The plates were then placed in ice and chloroform (500 μL) was added, mixed well and incubated at 4° C. for 20 minutes. The plates were then centrifuged at 1000 rpm for 15 minutes at 4° C.
# (§4) A portion (300 μL) of the aqueous solution was collected and mixed with a 5% aqueous suspension of activated charcoal (300 μL). The plates were then incubated at 4° C. for 30 minutes, after which the plates were centrifuged at 1000 rpm for 15 minutes at 4° C. From this, 125 μL of the aqueous solution was collected and plated into a 96 well plate. Microscint™ 40 [125 μL, Perkin-Elmer; containing a mixture of a polymer based on alkylphenolethoxylate (20-40%), diethanolamine-phosphoric acid ester ammonium salt (10-20%), sodium dioctyl sulphosuccinate (2.5-10%), triethyl phosphate (2.5-10%), 3,6-dimethyl-4-octyne-3,6-diol (≦2.5%), a polymer based on nonylphenolethoxylate (≦2.5%), diisopropyl naphthalene isomers (40-60%), 2,5-diphenyloxazole (≦2.5%), and 9,10-dimethylanthracene] was added and mixed well. After 30 minutes of incubation, the samples were analyzed with a MicroBeta® Trilux microplate liquid scintillation counter and luminometer (Perkin-Elmer).
# rat CYP17 = biological target: T2, rat CYP17 (Rattus norvegicus, UniProt P11715); experiment: CYP17 inhibition assay in rat testicular microsomes; format: biochemical; conditions: 3H3-17α-hydroxypregnenolone substrate, 60 minutes at 37° C.
# T2 construct: Rat testis tissue was collected and disrupted with 30 strokes of a glass homogenizer; from tissue; host or cells: rat testis (microsomal fraction)
# T2 sequence (P11715 1-507): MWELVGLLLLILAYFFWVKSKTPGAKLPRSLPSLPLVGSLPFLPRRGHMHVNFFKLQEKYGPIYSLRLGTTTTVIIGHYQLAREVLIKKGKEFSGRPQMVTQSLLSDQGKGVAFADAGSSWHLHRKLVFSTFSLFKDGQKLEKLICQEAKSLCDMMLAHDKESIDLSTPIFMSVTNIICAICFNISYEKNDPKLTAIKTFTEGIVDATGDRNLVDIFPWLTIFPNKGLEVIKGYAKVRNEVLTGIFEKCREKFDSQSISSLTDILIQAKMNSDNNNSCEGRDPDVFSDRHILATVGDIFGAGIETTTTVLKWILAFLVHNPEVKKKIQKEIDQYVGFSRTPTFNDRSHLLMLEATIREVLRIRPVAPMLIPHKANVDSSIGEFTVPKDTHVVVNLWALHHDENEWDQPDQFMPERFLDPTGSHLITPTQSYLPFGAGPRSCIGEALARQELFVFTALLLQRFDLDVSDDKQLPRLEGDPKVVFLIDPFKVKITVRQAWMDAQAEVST
# Experimental: as §1, §2, §3, §4
Structure (SMILES),IC50 (human CYP17),IC50 (rat CYP17)
"CC(c1cnc(-c2ccc(F)cc2F)s1)n1ccnc1 (centres unmarked) [Example 28, 2-(2,4-Difluoro-phenyl)-5-(1-imidazol-1-yl-ethyl)-thiazole]",50 to 200 nM,< 50 nM
"CCC(c1cnc(-c2ccc(O)cc2)s1)n1ccnc1 (centres unmarked) [Example 60, 4-[5-(1-Imidazol-1-yl-propyl)-thiazol-2-yl]-phenol]",201 to 10000 nM,50 to 200 nM
"CC(c1ccc(-c2ccc(=O)n(C)c2)s1)n1ccnc1 (centres unmarked) [Example 20, 5-(5-(1-(1H-imidazol-1-yl)ethyl)thiophen-2-yl)-1-methylpyridin-2(1H)-one]",201 to 10000 nM,< 50 nM
"CCC(c1ccc(-c2ccccc2C#N)cn1)n1ccnc1 (centres unmarked) [Example 18, 2-(6-(1-(1H-imidazol-1-yl)propyl)pyridin-3-yl)benzonitrile]",,< 50 nM
"CCC(c1cnc(-c2ccc(=O)[nH]c2)s1)n1ccnc1 (centres unmarked) [Example 59, 5-[5-(1-Imidazol-1-yl-propyl)-thiazol-2-yl]-1H-pyridin-2-one]",,50 to 200 nM
"CC(c1ccc(-c2ccoc2)cn1)n1ccnc1 (centres unmarked) [Example 13, 2-(1-(1H-imidazol-1-yl)ethyl)-5-(furan-3-yl)pyridine]",,< 50 nM
"COc1ccc(-c2ccc(C(C)n3ccnc3)s2)cc1 (centres unmarked) [Example 36, 1-{1-[5-(4-Methoxy-phenyl)-thiophen-2-yl]-ethyl}-1H-imidazole]",,< 50 nM
"CCC(c1nnc(-c2ccc(F)cc2)s1)n1ccnc1 (centres unmarked) [Example 19, 2-(1-(1H-imidazol-1-yl)propyl)-5-(4-fluorophenyl)-1,3,4-thiadiazole]",,< 50 nM
"CC(c1ccc(-c2ccc(F)cc2)cn1)n1ccnc1 (centres unmarked) [Example 12, 2-(1-(1H-imidazol-1-yl)ethyl)-5-(4-fluorophenyl)pyridine]",,< 50 nM
"CC(c1cnc(-c2ccc(C(=O)O)cc2)s1)n1ccnc1 (centres unmarked) [Example 65, 4-[5-(1-Imidazol-1-yl-ethyl)-thiazol-2-yl]-benzoic acid]",,201 to 10000 nM
"CCC(c1cnc(-c2ccc(OC)nc2)s1)n1ccnc1 (centres unmarked) [Example 51, 5-[5-(1-Imidazol-1-yl-propyl)-thiazol-2-yl]-2-methoxy-pyridine]",,< 50 nM
"COc1ccc(-c2ccc(C(C)(C)n3ccnc3)s2)cc1 [Example 24, 1-(2-(5-(4-methoxyphenyl)-thiophen-2-yl)-propan-2-yl)-1H-imidazole]",50 to 200 nM,< 50 nM
"CCC(c1ccc(-c2ccc(C(N)=O)cc2)cn1)n1ccnc1 (centres unmarked) [Example 10, 4-(6-(1-(1H-imidazol-1-yl)propyl)pyridin-3-yl)benzamide]",,< 50 nM
"CCC(c1ccc(-c2ccc(C#N)cc2)cn1)n1ccnc1 (centres unmarked) [Example 17, 4-[6-(1-Imidazol-1-yl-propyl)-pyridin-3-yl]-benzonitrile]",,< 50 nM
"CC(c1ccc(-c2ccc(O)cc2)s1)n1ccnc1 (centres unmarked) [Example 49, 4-[5-(1-Imidazol-1-yl-ethyl)-thiophen-2-yl]-phenol]",50 to 200 nM,< 50 nM
"CC(c1ccc(-c2ccc(F)cc2)nc1)n1ccnc1 (centres unmarked) [Example 54, 2-(4-Fluoro-phenyl)-5-(1-imidazol-1-yl-ethyl)-pyridine]",,< 50 nM
"CCC(c1cccc(-c2ccc(OC)cc2)n1)n1ccnc1 (centres unmarked) [Example 38, 2-(1-Imidazol-1-yl-propyl)-6-(4-methoxy-phenyl) pyridine]",201 to 10000 nM,< 50 nM

# More lines, now with the values ahead:
IC50 (human CYP17),IC50 (rat CYP17),Structure (SMILES)
< 50 nM,< 50 nM,"CCC(c1ccc(-c2ccc(O)cc2)o1)n1ccnc1 (centres unmarked) [Example 30, 4-[5-(1-Imidazol-1-yl-propyl)-furan-2-yl]-phenol]"
< 50 nM,< 50 nM,"CCC(c1ccc(-c2cccc(O)c2)cn1)n1ccnc1 (centres unmarked) [Example 8, 3-(6-(1-(1H-imidazol-1-yl)propyl)pyridin-3-yl)phenol]"
< 50 nM,< 50 nM,"CCC(c1ccc(-c2ccc(O)cc2)cn1)n1ccnc1 (centres unmarked) [Example 50, 4-[6-(1-Imidazol-1-yl-propyl)-pyridin-3-yl]-phenol]"
201 to 10000 nM,< 50 nM,"CCC(c1ccc(-c2ccc(OC)cc2)cn1)n1ccnc1 (centres unmarked) [Example 47, 2-(1-Imidazol-1-yl-propyl)-5-(4-methoxy-phenyl)-pyridine]"
< 50 nM,< 50 nM,"CCC(c1ccc(-c2cccc(OC)c2)cn1)n1ccnc1 (centres unmarked) [Example 7, 2-(1-(1H-imidazol-1-yl)propyl)-5-(3-methoxyphenyl)pyridine]"
201 to 10000 nM,< 50 nM,"CCC(c1ccc(-c2ccccc2OC)cn1)n1ccnc1 (centres unmarked) [Example 56, 2-(1-Imidazol-1-yl-propyl)-5-(2-methoxy-phenyl)-pyridine]"
201 to 10000 nM,< 50 nM,"CCC(c1cnc(-c2ccc(OC)cc2)s1)n1ccnc1 (centres unmarked) [Example 35, 5-(1-Imidazol-1-yl-propyl)-2-(4-methoxy-phenyl)-thiazole]"
< 50 nM,< 50 nM,"CCC(c1ccc(-c2ccc(OC)cc2)o1)n1ccnc1 (centres unmarked) [Example 27, 1-{1-[5-(4-Methoxy-phenyl)-furan-2-y]-propyl}-1H-imidazole]"
,< 50 nM,"CCC(c1cnc(-c2cccc(F)c2)s1)n1ccnc1 (centres unmarked) [Example 1, 5-(1-(1H-imidazol-1-yl)propyl)-2-(3-fluorophenyl)thiazole]"
50 to 200 nM,< 50 nM,"CCC(c1ccc(-c2ccccc2O)cn1)n1ccnc1 (centres unmarked) [Example 37, 2-[6-(1-Imidazol-1-yl-propyl)-pyridin-3-yl]-phenol]"
,< 50 nM,"COc1ccc(-c2cccc(C(C)n3ccnc3)n2)cc1 (centres unmarked) [Example 42, 2-(1-Imidazol-1-yl-ethyl)-6-(4-methoxy-phenyl)-pyridine]"
,< 50 nM,"COc1ccc(-c2ccc(C(CC(C)C)n3ccnc3)s2)cc1 (centres unmarked) [Example 39, 1-{1-[5-(4-Methoxy-phenyl)-thiophen-2-yl]-3-methyl-butyl}-1H-imidazole]"
